Values of other authors, collected in patent publication US20240397917A1, “ANIMAL PRODUCTION METHOD” (DSM IP ASSETS B.V., priority 2021, published 2024).

Experiments:
[1] = in vivo
[2] = per 1% increase in plasma levels of 25-OH-D3; average of broiler trials

absorption (at the same level of inclusion in feed): 74.9% | absorption in the intestine in comparison to Vitamin D3 (when fed): more efficient absorption | excretion in comparison to Vitamin D3 (when fed): less excretion | retention in comparison to Vitamin D3 (when fed): greater retention
Compound: C=C1CC[C@H](O)C/C1=C/C=C1\CCC[C@]2(C)[C@@H]([C@H](C)CCCC(C)(C)O)CC[C@@H]12 [HyD, calcidiol]
dose without toxic effects [1]: up to 10 times its recommended dose | improvement in ADG [2]: 0.029% | improvement in bone strength [2]: 0.173% | improvement in breast meat yield [2]: 0.008% | improvement in gait score [2]: 0.296%
